Key:
[1] = 13-week repeat-dose oral toxicology study in monkeys; assay type: in vivo, cynomolgus monkey; conditions: cynomolgus monkey, in vivo, oral
Procedure: (§1) The toxicologic profile of Compound A was assessed in several toxicology studies, including 13-week repeat-dose oral studies in Sprague Dawley rats and cynomolgus monkeys, a standard battery of genotoxicity studies, preliminary embryo-fetal development studies in rats and rabbits, and in vitro and in vivo phototoxicity studies. Rats and monkeys were selected for the general toxicology studies on the basis of pharmacology and metabolism data that indicated these animals would have metabolism similar to that of humans. Studies were performed in accordance with GLP regulations.
(§2) Doses in the 13-week toxicology studies were 0, 50, 150, 450 (female), and 600 (male) mg/kg/d in Sprague Dawley rats. In cynomolgus monkeys (females and males), the doses were 0, 10, 30, and 100 mg/kg/d. Hematoxylin-and-eosin-stained sections (nominal thickness of approximately 5 μm) were prepared from the formalin-fixed paraffin-embedded organs/tissues of all animals in the toxicology studies.

cynomolgus monkeys = experiment: as above; assay type: in vivo, cynomolgus monkey
Procedure: as §1, §2

[2] = test system: human adrenocortical NCI-H295R cell culture; experiment: Inhibitory effects on adrenal steroidogenesis; assay type: cell-based; conditions: 3 days of incubation
Procedure: Multiple concentrations of Compound A and aminoglutethimide (positive control) were evaluated in a human adrenocortical NCI-H295R cell culture. The effect of Compound A on adrenal steroidogenesis was determined by measurement of 12 steroid hormones in the culture medium after 3 days of incubation. The following steroids were measured: pregnenolone, 11-deoxycortisol, 17α-hydroxypregnenolone, 11-DOC, dehydroepiandrosterone, corticosterone, progesterone, cortisol, 17α-hydroxyprogesterone, aldosterone, androstenedione, and testosterone.

[3] = test system: subjects with hypertension; experiment: Double-blinded, randomized, placebo-controlled trial in subjects with hypertension (Example 2; AOBP week 4, serum K+); assay type: in vivo, human
Procedure: A double-blinded, randomized, placebo-controlled trial on the safety and efficacy of Compound A HBr was conducted on subjects with hypertension.
Hypertensive subjects were randomly assigned to one of the following six experimental groups: • (a) Placebo group: Oral administration of a placebo tablet matched for size, color, and shape of study drug once in the morning each day; • (b) 12.5 mg BID: Oral administration of one tablet containing 12.5 mg of Compound A HBr once in the morning and evening, 12 hours apart each day; • (c) 25 mg BID: Oral administration of one tablet containing 25 mg of Compound A HBr once in the morning and evening, 12 hours apart each day; • (d) 12.5 mg QD: Oral administration of one tablet containing 12.5 mg of Compound A HBr once in the morning each day; • (e) 50 mg QD: Oral administration of two tablets containing 25 mg of Compound A HBr once in the morning each day; and • (f) 100 mg QD: Oral administration of one tablet containing 100 mg of Compound A HBr once in the morning each day.
Subjects in the study met the following inclusion criteria: • (a) Male and nonpregnant, nonlactating female subjects ≥18 years of age; • (b) Written informed consent Health Insurance Portability and Accountability Act authorization, and local patient privacy required documentation for this study have been obtained; • (c) Automated office blood pressure (AOBP) with SBP ≥130 mm Hg; • (d) Background antihypertensive treatment of ≥2 drugs; • (e) PRA ≤1.0 ng/mL; • (f) Serum aldosterone ≥1 ng/dL; and • (g) Morning serum cortisol in normal range. If baseline serum cortisol <18 mcg/dL, then baseline Cortrosyn stimulation test administered at baseline.
Prospective subjects were also excluded based on the following exclusion criteria: • (a) Concomitant use of epithelial sodium channel inhibitors or mineralocorticoid receptor antagonists; • (b) Subjects with hypokalemia; • (c) Subjects with hyperkalemia; • (d) Subjects with serum cortisol <3 mcg/dL; • (e) Subjects with serum sodium <135 mEq/L; • (f) Subjects with estimated glomerular filtration rate <60 mL/min/1.73 m2; • (g) Subjects with type 1 or uncontrolled (hemoglobin A1c ≥9%) type 2 diabetes mellitus; • (h) Subjects with body mass index >40 kg/m2; • (i) Subjects with unstable angina; • (j) Subjects with SBP ≥175 mm Hg or DBP ≥100 mm Hg; • (k) Subjects with a decrease in SBP ≥20 mm Hg or DBP ≥10 mm Hg from sitting to standing position; • (l) Subjects who, in the opinion of the investigator, have suspected nonadherence to antihypertensive treatment; • (m) Subjects who, in the opinion of the investigator, have any major medical illness or symptoms; • (n) Subjects who, in the opinion of the investigator, have any acute or chronic medical or psychiatric condition; • (o) Subjects undergoing treatment with any of the following medications: • (i) Topical corticoids; • (ii) Sympathomimetic decongestants; • (iii) Theophylline; • (iv) Phosphodiesterase type 5 inhibitors; • (v) NSAIDs; • (vi) Intramuscular steroids; • (vii) Estrogen; • (viii) Cytochromes; • (ix) Strong CYP3A and CYP3A4 inducers; • (p) Subjects with known hypersensitivity to Compound A HBr or any of the excipients; and • (q) Subjects who are night-shift workers.

CC(=O)N[C@H]1CC[C@H](NC(=O)CN2CCN(c3nncc(-c4ccc(C)cc4)n3)CC2)CC1 [Compound A]
NOAEL at 13 weeks ([1]; female monkeys): 10 mg/kg/day | NOAEL at 13 weeks ([1]; male monkeys): 30 mg/kg/day | effects on electrocardiogram values (cynomolgus monkeys; doses up to 100 mg/kg/d): no Compound A-related effects | effect on cortisol (cynomolgus monkeys; monkeys): no effects on cortisol | adrenal findings (cynomolgus monkeys; monkeys, all dose levels (10, 30, 100 mg/kg/d)): Hypertrophy of zona glomerulosa cells in the adrenal cortices and decreased PACs | reduction in aldosterone secretion ([2]; concentrations ≥0.11 μmol/L): > 50% | reduction in corticosterone ([2]; concentrations ≥1 μmol/L): > 50% | reductions in pregnenolone, progesterone, 17α-hydroxyprogesterone, 11-DOC, corticosterone, and cortisol ([2]; top concentration 3 μmol/L): < 50%

CC(=O)N[C@H]1CC[C@H](NC(=O)CN2CCN(c3nncc(-c4ccc(C)cc4)n3)CC2)CC1 [Compound A HBr]
Reduction in systolic blood pressure from baseline at week 4, dose cohort vs placebo, Mean (SEM) ([3]; 12.5 mg BID): 1.2 (5.2) | Systolic BP by AOBP, Change (Wk 4 v. BL), Mean ([3]; 12.5 mg BID, N 10): −5.3 mmHg | Systolic BP by AOBP, Change (Wk 4 v. BL), Median ([3]; 12.5 mg BID, N 10): −4.5 mmHg | Systolic BP by AOBP, Week 4, Mean ([3]; 12.5 mg BID, N 10): 138 mmHg | Systolic BP by AOBP, Week 4, Median ([3]; 12.5 mg BID, N 10): 133 mmHg | Reduction in systolic blood pressure from baseline at week 4, dose cohort vs placebo, Mean (SEM) ([3]; 12.5 mg QD): 3.85 (6.1) | Systolic BP by AOBP, Change (Wk 4 v. BL), Mean ([3]; 12.5 mg QD, N 10): −7.9 mmHg | Systolic BP by AOBP, Change (Wk 4 v. BL), Median ([3]; 12.5 mg QD, N 10): −2.25 mmHg | Systolic BP by AOBP, Week 4, Mean ([3]; 12.5 mg QD, N 10): 138.9 mmHg | Systolic BP by AOBP, Week 4, Median ([3]; 12.5 mg QD, N 10): 139 mmHg | Reduction in systolic blood pressure from baseline at week 4, dose cohort vs placebo, Mean (SEM) ([3]; 25 mg BID): 11.5 (5.1) | Systolic BP by AOBP, Change (Wk 4 v. BL), Mean ([3]; 25 mg BID, N 11): −15.5 mmHg | Systolic BP by AOBP, Change (Wk 4 v. BL), Median ([3]; 25 mg BID, N 11): −20.0 mmHg | Systolic BP by AOBP, Week 4, Mean ([3]; 25 mg BID, N 11): 132.1 mmHg | Systolic BP by AOBP, Week 4, Median ([3]; 25 mg BID, N 11): 132 mmHg | Reduction in systolic blood pressure from baseline at week 4, dose cohort vs placebo, Mean (SEM) ([3]; 50 mg QD): 6.3 (4.9) | Systolic BP by AOBP, Change (Wk 4 v. BL), Mean ([3]; 50 mg QD, N 12): −10.3 mmHg | Systolic BP by AOBP, Change (Wk 4 v. BL), Median ([3]; 50 mg QD, N 12): −8.75 mmHg | Systolic BP by AOBP, Week 4, Mean ([3]; 50 mg QD, N 12): 132.1 mmHg | Systolic BP by AOBP, Week 4, Median ([3]; 50 mg QD, N 12): 133 mmHg | Reduction in systolic blood pressure from baseline at week 4, dose cohort vs placebo, Mean (SEM) ([3]; 100 mg QD): 15 (5.4) | median increase in serum potassium (K+) ([3]; 100 mg QD cohort): 0.2 mmol/L | subjects with dose held or dose reduction related to elevated K+ ([3]; 100 mg QD cohort): No subjects | Systolic BP by AOBP, Change (Wk 4 v. BL), Mean ([3]; 100 mg QD, N 10): −19.0 mmHg | Systolic BP by AOBP, Change (Wk 4 v. BL), Median ([3]; 100 mg QD, N 10): −20.25 mmHg | Systolic BP by AOBP, Week 4, Mean ([3]; 100 mg QD, N 10): 126.1 mmHg | Systolic BP by AOBP, Week 4, Median ([3]; 100 mg QD, N 10): 124 mmHg
